Measured values as given in US20220409727A1, “Metal Complexes Bearing Bisstyryl-Bipyridine Ligand and Their Use as Photosensitizer Agent in One and Two-Photon Photodynamic Therapy” (Paris Sciences et Lettres, priority 2019, published 2022).
Like-named read-outs stand apart in the source and are kept apart here.

What was measured:
[1] = system: non-cancerous retinal pigment epithelium (RPE-1) cells; experiment: (Photo-)cytotoxicity on 2D cell monolayers, resazurin assay, RPE-1; settings: for PI (480 nm): RPE-1, dark vs 480 nm (10 min, 3.1 J/cm^2); for PI (540 nm): RPE-1, dark vs 540 nm (40 min, 9.5 J/cm^2);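 on all read-outs here: cells exposed to compound 4 h, medium exchanged, then irradiated or kept dark, 44 h further growth, viability by resorufin fluorescence (ex 540 nm, em 590 nm)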
[2] = Luminescence lifetime measurements; type: physicochemical; settings: excitation at 355 nm; for τ/ns air (Lifetime): air saturated CH3CN; for τ/ns degassed (Lifetime): degassed CH3CN
Procedure: (§1) For the determination of the lifetimes, the samples were prepared in an air saturated and in a degassed CH3CN solution with an absorbance of 0.2 at 355 nm. This solution was irradiated in fluorescence quartz cuvettes (width 1 cm) using a NT342B Nd-YAG pumped optical parametric oscillator (Ekspla) at 355 nm. The emission signal was focused and collected at right angle to the excitation pathway and directed to a Princeton Instruments Acton SP-2300i monochromator. As a detector a R928 photomultiplier tube (Hamamatsu) has been used.

[3] = Luminescence quantum yield measurements; type: physicochemical; set-up: key: fraction, relative to [Ru(bipy)3]Cl2 reference in CH3CN (Φem=5.9%); settings: CH3CN, room temperature, excitation at 355 nm
Procedure: as §1, with “luminescence quantum yield,” for “lifetimes,”, “an” for “an air saturated and in a degassed”, “0.1” for “0.2”, “XPI-Max 4 CCD camera (Princeton Instruments)” for “R928 photomultiplier tube (Hamamatsu)”, “used. The luminescence quantum yields were determined by comparison with the reference [Ru(bipy)3]Cl2 in CH3CN (Φem=5.9%) (Nakamaru, K., 1982) applying the following formula:” for “used.”
Φem, sample=Φem, reference*(Freference/Fsample)*(Isample/Ireference)*(nsample/nreference)^2
Φem=luminescence quantum yield, F=fraction of light absorbed, I=integrated emission intensities, n=refractive index, A=absorbance of the sample at irradiation wavelength.

[4] = system: mouse colon carcinoma (CT-26) cells
Procedure: (§2) The human glioblastoma astrocytoma (U373) cell line was cultured in MEM medium supplemented with 10% FBS, 1% NEAA (non-essential amino-acids) and 1% penicillin/streptomycin. […] The human retinal epithelial cells (RPE-1, non-cancerous cells immortalized with hTERT) were cultured in DMEM-F12 medium supplemented with 10% FBS and 1% penicillin/streptomycin. All cell lines were obtained from the American Type Culture Collection (ATCC) and cultured at 37° C. and 5% CO2. Before an experiment, the cells were passaged three times.
(§3) The cytotoxicity of the compounds was assessed by measuring cell viability using a fluorometric resazurin assay. The cultivated cells were seeded in triplicates in 96 well plates with a density of 4000 cells per well in 100 μL of media. After 24 h, the medium was removed and the cells were treated with increasing concentrations of the compound diluted in cell media achieving a total volume of 200 μL. The cells were incubated with the compound for 4 h. After this time, the media was removed and replaced with 200 μL of fresh medium. For the phototoxicity studies, the cells were exposed to light with an Atlas Photonics LUMOS BIO irradiator. Each well was constantly illuminated with either a 480 nm or 540 nm irradiation. During this time, the temperature was maintained constantly at 37° C. The cells were grown in the incubator for additional 44 h. For the determination of the dark cytotoxicity, the cells were not irradiated and after the medium exchange directly incubated for 44 h. After this time, the medium was replaced with fresh medium containing resazurin with a final concentration of 0.2 mg/mL. After 4 h incubation, the amount of the fluorescent product resorufin was determined upon excitation at 540 nm and measurement its emission at 590 nm using a SpectraMax M2 Microplate Reader (Molecular Devices).
(§4) The obtained data was analyzed with the GraphPad Prism software.

[5] = system: mouse colon carcinoma (CT-26) cells; experiment: (Photo-)cytotoxicity on 2D cell monolayers, resazurin assay, CT-26; settings: for PI (480 nm): CT-26, dark vs 480 nm (10 min, 3.1 J/cm^2); for PI (540 nm): CT-26, dark vs 540 nm (40 min, 9.5 J/cm^2); for IC50: compounds 1-3 as chloride salts
Procedure: as §2, §3, §4

[6] = system: human glioblastoma astrocytoma (U373) cells; experiment: (Photo-)cytotoxicity on 2D cell monolayers, resazurin assay, U373; settings: for PI (480 nm): U373, dark vs 480 nm (10 min, 3.1 J/cm^2); for PI (540 nm): U373, dark vs 540 nm (40 min, 9.5 J/cm^2); for IC50: compounds 1-3 as chloride salts
Procedure: as §2, §3, §4

[7] = system: human cervical carcinoma (HeLa) cells; experiment: (Photo-)cytotoxicity on 2D cell monolayers, resazurin assay, HeLa; type: cell-based; settings: for PI (480 nm): dark vs 480 nm (10 min, 3.1 J/cm^2); for PI (540 nm): dark vs 540 nm (40 min, 9.5 J/cm^2)
Source text: Before an experiment, the cells were passaged three times.

[8] = system: human glioblastoma astrocytoma (U373) cells
Procedure: as §2, §3, §4

[9] = Emission measurement in CH3CN; type: physicochemical; settings: room temperature, excitation at 355 nm
Procedure: The absorption of the samples was measured with a SpectraMax M2 Spectrometer (Molecular Devices). The emission was measured by irradiation of the sample in fluorescence quartz cuvettes (width 1 cm) using a NT342B Nd-YAG pumped optical parametric oscillator (Ekspla) at 355 nm. Luminescence was focused and collected at right angle to the excitation pathway and directed to a Princeton Instruments Acton SP-2300i monochromator. As a detector, a XPI-Max 4 CCD camera (Princeton Instruments) has been used.

[10] = Singlet oxygen measurement, direct evaluation (1O2 luminescence at 1270 nm); type: physicochemical
Procedure: The samples were prepared in an air saturated CH3CN or D2O solution with an absorbance of 0.2 at 450 nm. This solution was irradiated in fluorescence quartz cuvettes (width 1 cm) using a mounted M450LP1 LED (Thorlabs) whose irradiation, centered at 450 nm, has been focused with aspheric condenser lenses. The intensity of the irradiation has been varied using a T-Cube LED Driver (Thorlabs) and measured with an optical power and energy meter. The emission signal was focused and collected at right angle to the excitation pathway and directed to a Princeton Instruments Acton SP-2300i monochromator. A longpass glass filter was placed in front of the monochromator entrance slit to cut off light at wavelengths shorter than 850 nm. As a detector an EO-817L IR-sensitive liquid nitrogen cooled germanium diode detector (North Coast Scientific Corp.) has been used. The singlet oxygen luminesce at 1270 nm was measured by recording spectra from 1100 to 1400 nm. For the data analysis, the singlet oxygen luminescence peaks at different irradiation intensities were integrated. The resulting areas were plotted against the percentage of the irradiation intensity and the slope of the linear regression calculated. The absorbance of the sample was corrected with an absorbance correction factor. As reference for the measurement Rose Bengal (Φ=76%) (Kochevar, I. E. and Redmond, R. W., 2000) was used and the singlet oxygen quantum yields were calculated using the following formula:
Φsample=Φreference*(Ssample/Sreference)*(Ireference/Isample)
Φ=singlet oxygen quantum yield, S=slope of the linear regression of the plot of the areas of the singlet oxygen luminescence peaks against the irradiation intensity, I=absorbance correction factor, […] of the irradiation source, A=absorbance of the sample at irradiation wavelength.

[11] = Singlet oxygen measurement, indirect evaluation (RNO absorbance); type: physicochemical; settings: indirect
Procedure: For the measurement in CH3CN: The samples were prepared in an air-saturated CH3CN solution containing the complex with an absorbance of 0.2 at the irradiation wavelength, N,N-dimethyl-4-nitrosoaniline aniline (RNO, 24 μM) and imidazole (12 mM). For the measurement in PBS buffer: The samples were prepared in an air-saturated PBS solution containing the complex with an absorbance of 0.1 at the irradiation wavelength, N,N-dimethyl-4-nitrosoaniline aniline (RNO, 20 μM) and histidine (10 mM). The samples were irradiated on 96 well plates with an Atlas Photonics LUMOS BIO irradiator for different times. The absorbance of the samples was measured during these time intervals with a SpectraMax M2 Microplate Reader (Molecular Devices). The difference in absorbance (A0−A) at 420 nm for the CH3CN solution or at 440 nm a PBS buffer solution was calculated and plotted against the irradiation times. From the plot the slope of the linear regression was calculated as well as the absorbance correction factor determined. The singlet oxygen quantum yields were calculated using the same formulas as used for the direct evaluation.

[12] = read-out: IC50 540 nm (40 min, 9.5 J/cm^2), CT-26, irradiation 540 nm (40 min, 9.5 J/cm^2)
[13] = read-out: IC50 dark, CT-26, dark, 4 h incubation
[14] = read-out: IC50 480 nm (10 min, 3.1 J/cm^2), U373, irradiation 480 nm (10 min, 3.1 J/cm^2)
[15] = read-out: IC50 dark, U373, dark, 4 h incubation
[16] = dark, 4 h incubation, compounds 1-3 as chloride salts, read-out: IC50 dark
[17] = read-out: IC50 480 nm (10 min, 3.1 J/cm^2), irradiation 480 nm (10 min, 3.1 J/cm^2), compounds 1-3 as chloride salts
[18] = read-out: IC50 540 nm (40 min, 9.5 J/cm^2), irradiation 540 nm (40 min, 9.5 J/cm^2), compounds 1-3 as chloride salts

Molecule	PI (480 nm) [1]	PI (540 nm) [1]	IC50 [4] [µM]	PI (480 nm) [5]	PI (540 nm) [5]	IC50 [5, 12] [µM]	IC50 [5, 13] [µM]	PI (480 nm) [6]	PI (540 nm) [6]	IC50 [6, 14] [µM]	IC50 [6, 15] [µM]	IC50 [7, 16] [µM]	IC50 [7, 17] [µM]	IC50 [7, 18] [µM]	IC50 [8] [µM]	Singlet oxygen quantum yield, direct 450 nm CH3CN [10] [%]	Singlet oxygen quantum yield, indirect 450 nm CH3CN [11] [%]	Singlet oxygen quantum yield, indirect 450 nm PBS [11] [%]	Singlet oxygen quantum yield, indirect 540 nm CH3CN [11] [%]	Singlet oxygen quantum yield, indirect 540 nm PBS [11] [%]	other results
COc1ccc(/C=C/c2ccnc(-c3cc(/C=C/c4ccc(OC)cc4)ccn3)c2)cc1.COc1ccc(/C=C/c2ccnc(-c3cc(/C=C/c4ccc(OC)cc4)ccn3)c2)cc1.COc1ccc(/C=C/c2ccnc(-c3cc(/C=C/c4ccc(OC)cc4)ccn3)c2)cc1.F[P-](F)(F)(F)(F)F.F[P-](F)(F)(F)(F)F.[Ru+2] [Compound 3, [Ru((E,E′)-4,4′-Bis[p-methoxystyryl]-2,2′-bipyridine)3][PF6]2]	>1.9	>2.2	19.3 ± 2.1	>5.2	>4.3	23 ± 2.6	> 100	>2.4	>1.9	41 ± 3.5	> 100	> 100	15.3 ± 1.4	11.3 ± 2.2	51.3 ± 3.4	52	48	6	49	5	τ/ns air (Lifetime) [2]: 76 ns; τ/ns degassed (Lifetime) [2]: 338 ns; ϕem (Luminescence Quantum Yield) [3]: 0.011; PI (480 nm) [7]: >6.5; PI (540 nm) [7]: >8.8; λem/nm (Emission maximum) [9]: 682 nm
[Ru(4,7-Diphenyl-1,10-phenanthroline)3][PF6]2 [reference compound]	13.4	10.1	0.4 ± 0.2	7.0	5.6	0.5 ± 0.2	2.8 ± 0.5	7.8	8.4	1.3 ± 0.2	10.1 ± 0.7	8.5 ± 0.4	0.7 ± 0.2	1.1 ± 0.2	1.2 ± 0.3	44	47	4	45	3	PI (480 nm) [7]: 12.1; PI (540 nm) [7]: 7.7
C(=C\c1ccnc(-c2cc(/C=C/c3ccccc3)ccn2)c1)/c1ccccc1.C(=C\c1ccnc(-c2cc(/C=C/c3ccccc3)ccn2)c1)/c1ccccc1.C(=C\c1ccnc(-c2cc(/C=C/c3ccccc3)ccn2)c1)/c1ccccc1.F[P-](F)(F)(F)(F)F.F[P-](F)(F)(F)(F)F.[Ru+2] [Compound 1]	>3.2	>3.2	20.3 ± 1.8	>4.9	>3.0	33.4 ± 3.5	> 100	>1.9	>1.2	51.7 ± 3.2	> 100	> 100	29.5 ± 1.2	48.7 ± 4.5	83.1 ± 6.7	65	66	5	61	3	τ/ns air (Lifetime) [2]: 86 ns; τ/ns degassed (Lifetime) [2]: 385 ns; ϕem (Luminescence Quantum Yield) [3]: 0.019; PI (480 nm) [7]: >3.4; PI (540 nm) [7]: >2.1; λem/nm (Emission maximum) [9]: 677 nm
F[P-](F)(F)(F)(F)F.F[P-](F)(F)(F)(F)F.[Ru+2].c1cnc2c(c1)ccc1cccnc12.c1cnc2c(c1)ccc1cccnc12.c1cnc2c(c1)ccc1cccnc12 [[Ru(1,10-phenanthroline)3][PF6]2, reference compound]			> 100			> 100	> 100			> 100	> 100	> 100	> 100	> 100	> 100	25	23	2	22	2	
